From article PMC8037182, “Solvothermal Synthesis of Multiple Dihydropyrimidinones at a Time as Inhibitors of Eg5” (Molecules, 2021)

How the values were obtained:
Caco-2 cell line = assay: Cytotoxicity MTS assay, Caco-2 cell line; format: cell-based; details: for OD490 Mean / OD490 Well 1 / OD490 Well 2 / OD490 Well 3: Caco-2 cell line
Outline: (§1)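 Steps: plate 1000 cells per well; incubate 24 h; add compound (final 0.5 to 100 µM) or 0.025% DMSO blank for 24 h; add MTS reagent, hold 2 h at 37 °C in 5% CO2; read A490; fit percent viability against concentration by non-linear regression to obtain IC50.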

T24 cell line = assay: Cytotoxicity MTS assay, T24 cell line; format: cell-based; details: for OD490 Mean / OD490 Well 1 / OD490 Well 2 / OD490 Well 3: T24 cell line;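 as to OD490 Mean: blank control wells received 0.025% DMSO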;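 as to OD490 Well 1: blank control wells received 0.025% DMSO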;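 as to OD490 Well 2: blank control wells received 0.025% DMSO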;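 as to OD490 Well 3: blank control wells received 0.025% DMSO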
Outline: as §1

CCOC(=O)c1c(C2NC(=O)NC(C)=C2C(=O)Nc2ccccc2OC)[nH]c(C(=O)OC)c1C (centres unmarked) [D1]
OD490 Mean (Caco-2 cell line; 0.5μM, first assay): 0.6107 | OD490 Well 1 (Caco-2 cell line; 0.5μM, first assay): 0.5649 | OD490 Well 2 (Caco-2 cell line; 0.5μM, first assay): 0.5391 | OD490 Well 3 (Caco-2 cell line; 0.5μM, first assay): 0.7282 | OD490 Mean (Caco-2 cell line; 0.5μM, second assay): 0.6066 | OD490 Well 1 (Caco-2 cell line; 0.5μM, second assay): 0.6391 | OD490 Well 2 (Caco-2 cell line; 0.5μM, second assay): 0.6324 | OD490 Well 3 (Caco-2 cell line; 0.5μM, second assay): 0.5484 | OD490 Mean (Caco-2 cell line; 0.5μM, third assay): 0.6142 | OD490 Well 1 (Caco-2 cell line; 0.5μM, third assay): 0.6774 | OD490 Well 2 (Caco-2 cell line; 0.5μM, third assay): 0.5749 | OD490 Well 3 (Caco-2 cell line; 0.5μM, third assay): 0.5903 | OD490 Mean (Caco-2 cell line; 1μM, first assay): 0.6086 | OD490 Well 1 (Caco-2 cell line; 1μM, first assay): 0.6046 | OD490 Well 2 (Caco-2 cell line; 1μM, first assay): 0.6209 | OD490 Well 3 (Caco-2 cell line; 1μM, first assay): 0.6002 | OD490 Mean (Caco-2 cell line; 1μM, second assay): 0.6031 | OD490 Well 1 (Caco-2 cell line; 1μM, second assay): 0.6102 | OD490 Well 2 (Caco-2 cell line; 1μM, second assay): 0.5846 | OD490 Well 3 (Caco-2 cell line; 1μM, second assay): 0.6145 | OD490 Mean (Caco-2 cell line; 1μM, third assay): 0.6182 | OD490 Well 1 (Caco-2 cell line; 1μM, third assay): 0.6046 | OD490 Well 2 (Caco-2 cell line; 1μM, third assay): 0.6112 | OD490 Well 3 (Caco-2 cell line; 1μM, third assay): 0.6387 | OD490 Mean (Caco-2 cell line; 10μM, first assay): 0.6584 | OD490 Well 1 (Caco-2 cell line; 10μM, first assay): 0.6611 | OD490 Well 2 (Caco-2 cell line; 10μM, first assay): 0.6501 | OD490 Well 3 (Caco-2 cell line; 10μM, first assay): 0.6639 | OD490 Mean (Caco-2 cell line; 10μM, second assay): 0.6246 | OD490 Well 1 (Caco-2 cell line; 10μM, second assay): 0.6493 | OD490 Well 2 (Caco-2 cell line; 10μM, second assay): 0.5502 | OD490 Well 3 (Caco-2 cell line; 10μM, second assay): 0.6742 | OD490 Mean (Caco-2 cell line; 10μM, third assay): 0.6177 | OD490 Well 1 (Caco-2 cell line; 10μM, third assay): 0.6611 | OD490 Well 2 (Caco-2 cell line; 10μM, third assay): 0.5578 | OD490 Well 3 (Caco-2 cell line; 10μM, third assay): 0.6341 | OD490 Mean (Caco-2 cell line; 25μM, first assay): 0.5948 | OD490 Well 1 (Caco-2 cell line; 25μM, first assay): 0.6149 | OD490 Well 2 (Caco-2 cell line; 25μM, first assay): 0.5791 | OD490 Well 3 (Caco-2 cell line; 25μM, first assay): 0.5903 | OD490 Mean (Caco-2 cell line; 25μM, second assay): 0.5865 | OD490 Well 1 (Caco-2 cell line; 25μM, second assay): 0.5801 | OD490 Well 2 (Caco-2 cell line; 25μM, second assay): 0.6127 | OD490 Well 3 (Caco-2 cell line; 25μM, second assay): 0.5666 | OD490 Mean (Caco-2 cell line; 25μM, third assay): 0.5866 | OD490 Well 1 (Caco-2 cell line; 25μM, third assay): 0.5903 | OD490 Well 2 (Caco-2 cell line; 25μM, third assay): 0.5721 | OD490 Well 3 (Caco-2 cell line; 25μM, third assay): 0.5974 | OD490 Mean (Caco-2 cell line; 50μM, first assay): 0.5045 | OD490 Well 1 (Caco-2 cell line; 50μM, first assay): 0.5048 | OD490 Well 2 (Caco-2 cell line; 50μM, first assay): 0.5114 | OD490 Well 3 (Caco-2 cell line; 50μM, first assay): 0.4972 | OD490 Mean (Caco-2 cell line; 50μM, second assay): 0.5178 | OD490 Well 1 (Caco-2 cell line; 50μM, second assay): 0.4983 | OD490 Well 2 (Caco-2 cell line; 50μM, second assay): 0.5020 | OD490 Well 3 (Caco-2 cell line; 50μM, second assay): 0.5531 | OD490 Mean (Caco-2 cell line; 50μM, third assay): 0.5361 | OD490 Well 1 (Caco-2 cell line; 50μM, third assay): 0.6048 | OD490 Well 2 (Caco-2 cell line; 50μM, third assay): 0.5048 | OD490 Well 3 (Caco-2 cell line; 50μM, third assay): 0.4988 | OD490 Mean (Caco-2 cell line; 100μM, first assay): 0.5483 | OD490 Well 1 (Caco-2 cell line; 100μM, first assay): 0.6273 | OD490 Well 2 (Caco-2 cell line; 100μM, first assay): 0.5214 | OD490 Well 3 (Caco-2 cell line; 100μM, first assay): 0.4962 | OD490 Mean (Caco-2 cell line; 100μM, second assay): 0.5031 | OD490 Well 1 (Caco-2 cell line; 100μM, second assay): 0.5662 | OD490 Well 2 (Caco-2 cell line; 100μM, second assay): 0.4999 | OD490 Well 3 (Caco-2 cell line; 100μM, second assay): 0.4431 | OD490 Mean (Caco-2 cell line; 100μM, third assay): 0.4792 | OD490 Well 1 (Caco-2 cell line; 100μM, third assay): 0.5214 | OD490 Well 2 (Caco-2 cell line; 100μM, third assay): 0.4347 | OD490 Well 3 (Caco-2 cell line; 100μM, third assay): 0.4814 | IC50 (Caco-2 cell line; MTS assay, 24 h exposure): 108 µM | IC50 (T24 cell line; MTS assay, 24 h exposure): 130 µM | OD490 Mean (T24 cell line; 0.5μM, first assay): 1.7953 | OD490 Well 1 (T24 cell line; 0.5μM, first assay): 1.9580 | OD490 Well 2 (T24 cell line; 0.5μM, first assay): 1.8859 | OD490 Well 3 (T24 cell line; 0.5μM, first assay): 1.5421 | OD490 Mean (T24 cell line; 0.5μM, second assay): 1.6618 | OD490 Well 1 (T24 cell line; 0.5μM, second assay): 1.6321 | OD490 Well 2 (T24 cell line; 0.5μM, second assay): 1.6547 | OD490 Well 3 (T24 cell line; 0.5μM, second assay): 1.6987 | OD490 Mean (T24 cell line; 0.5μM, third assay): 1.6883 | OD490 Well 1 (T24 cell line; 0.5μM, third assay): 1.6325 | OD490 Well 2 (T24 cell line; 0.5μM, third assay): 1.6625 | OD490 Well 3 (T24 cell line; 0.5μM, third assay): 1.7698 | OD490 Mean (T24 cell line; 1μM, first assay): 1.8122 | OD490 Well 1 (T24 cell line; 1μM, first assay): 1.9288 | OD490 Well 2 (T24 cell line; 1μM, first assay): 1.8729 | OD490 Well 3 (T24 cell line; 1μM, first assay): 1.6348 | OD490 Mean (T24 cell line; 1μM, second assay): 1.5761 | OD490 Well 1 (T24 cell line; 1μM, second assay): 1.5621 | OD490 Well 2 (T24 cell line; 1μM, second assay): 1.7412 | OD490 Well 3 (T24 cell line; 1μM, second assay): 1.4251 | OD490 Mean (T24 cell line; 1μM, third assay): 1.7342 | OD490 Well 1 (T24 cell line; 1μM, third assay): 1.7236 | OD490 Well 2 (T24 cell line; 1μM, third assay): 1.7425 | OD490 Well 3 (T24 cell line; 1μM, third assay): 1.7365 | OD490 Mean (T24 cell line; 10μM, first assay): 1.8792 | OD490 Well 1 (T24 cell line; 10μM, first assay): 2.1723 | OD490 Well 2 (T24 cell line; 10μM, first assay): 1.7790 | OD490 Well 3 (T24 cell line; 10μM, first assay): 1.6864 | OD490 Mean (T24 cell line; 10μM, second assay): 1.7434 | OD490 Well 1 (T24 cell line; 10μM, second assay): 1.9658 | OD490 Well 2 (T24 cell line; 10μM, second assay): 1.6625 | OD490 Well 3 (T24 cell line; 10μM, second assay): 1.6020 | OD490 Mean (T24 cell line; 10μM, third assay): 1.7548 | OD490 Well 1 (T24 cell line; 10μM, third assay): 1.7768 | OD490 Well 2 (T24 cell line; 10μM, third assay): 1.8524 | OD490 Well 3 (T24 cell line; 10μM, third assay): 1.6352 | OD490 Mean (T24 cell line; 25μM, first assay): 1.7549 | OD490 Well 1 (T24 cell line; 25μM, first assay): 1.8700 | OD490 Well 2 (T24 cell line; 25μM, first assay): 1.7393 | OD490 Well 3 (T24 cell line; 25μM, first assay): 1.6554 | OD490 Mean (T24 cell line; 25μM, second assay): 1.7221 | OD490 Well 1 (T24 cell line; 25μM, second assay): 1.6685 | OD490 Well 2 (T24 cell line; 25μM, second assay): 1.7236 | OD490 Well 3 (T24 cell line; 25μM, second assay): 1.7741 | OD490 Mean (T24 cell line; 25μM, third assay): 1.8268 | OD490 Well 1 (T24 cell line; 25μM, third assay): 1.7747 | OD490 Well 2 (T24 cell line; 25μM, third assay): 1.7535 | OD490 Well 3 (T24 cell line; 25μM, third assay): 1.9522 | OD490 Mean (T24 cell line; 50μM, first assay): 1.5187 | OD490 Well 1 (T24 cell line; 50μM, first assay): 1.4408 | OD490 Well 2 (T24 cell line; 50μM, first assay): 1.5156 | OD490 Well 3 (T24 cell line; 50μM, first assay): 1.5997 | OD490 Mean (T24 cell line; 50μM, second assay): 1.5158 | OD490 Well 1 (T24 cell line; 50μM, second assay): 1.5365 | OD490 Well 2 (T24 cell line; 50μM, second assay): 1.5214 | OD490 Well 3 (T24 cell line; 50μM, second assay): 1.4896 | OD490 Mean (T24 cell line; 50μM, third assay): 1.4458 | OD490 Well 1 (T24 cell line; 50μM, third assay): 1.4214 | OD490 Well 2 (T24 cell line; 50μM, third assay): 1.4823 | OD490 Well 3 (T24 cell line; 50μM, third assay): 1.4336 | OD490 Mean (T24 cell line; 100μM, first assay): 1.4345 | OD490 Well 1 (T24 cell line; 100μM, first assay): 1.4729 | OD490 Well 2 (T24 cell line; 100μM, first assay): 1.3331 | OD490 Well 3 (T24 cell line; 100μM, first assay): 1.4975 | OD490 Mean (T24 cell line; 100μM, second assay): 1.3859 | OD490 Well 1 (T24 cell line; 100μM, second assay): 1.3654 | OD490 Well 2 (T24 cell line; 100μM, second assay): 1.5687 | OD490 Well 3 (T24 cell line; 100μM, second assay): 1.2235 | OD490 Mean (T24 cell line; 100μM, third assay): 1.3345 | OD490 Well 1 (T24 cell line; 100μM, third assay): 1.3553 | OD490 Well 2 (T24 cell line; 100μM, third assay): 1.4058 | OD490 Well 3 (T24 cell line; 100μM, third assay): 1.2423
